Values quoted from earlier work, collected in patent publication EP0527762B1, “INHIBITION OF ALLOGRAFT AND […] REJECTION” (priority 1990, dated 1991).

Tested on: rabbit kidney xenografts
Conditions: rabbit kidney into cats, discordant

SMILES	prevention of hyperacute rejection
O=C(O)c1cc(=O)c2c(OCC(O)COc3cccc4oc(C(=O)O)cc(=O)c34)cccc2o1 [sodium chromoglycate]	not prevented
CCCCC[C@H](O)/C=C/[C@@H]1[C@H]2C/C(=C/CCCC(=O)O)O[C@H]2C[C@H]1O [prostacyclin]	not prevented
C[C@H](CS)C(=O)N1CCC[C@H]1C(=O)O [captopril]	not prevented
CCOC(=O)[C@H](CCc1ccccc1)N[C@@H](C)C(=O)N1CCC[C@H]1C(=O)O [enalapril]	not prevented
